Literature values in patent publication US20120208745A1, “TREATMENT OF HIV” (priority 2006, published 2012).
Like-named read-outs stand apart in the source and are kept apart here.

Assays:
IL-1 = settings: whole blood of HIV patients stimulated with LPS; concentration-dependent
TNF-α [1] = settings: whole blood of HIV patients stimulated with LPS; concentration-dependent
IL-1β = settings: normal PBMC, induced by HIV envelope glycoprotein gp 120
TNF-α [2] = settings: normal PBMC, induced by HIV envelope glycoprotein gp 120

| Substance | production of IL-1 (IL-1) | production of TNF-α (TNF-α [1]) | production of IL-1β (IL-1β) | production of TNF-α (TNF-α [2]) |
| --- | --- | --- | --- | --- |
| adrenocorticotropic hormone [ACTH (1-39)] (SYSMEHFRWGKPVGKKRRPVKVYPNGAEDESAEAFPLEF; Corticotropin; UniProt P01189 138-176, looked up) [Proopiomelanocortin-derived melanocortin peptide] | reduced | reduced | – | – |
| α-melanocyte-stimulating hormone [α-MSH (1-13), α-melanocyte-stimulating hormone [α-MSH (1-13)]] | reduced | reduced | inhibit | inhibit |
| ACTH (1-24): Melanocortin peptide, fragment 1-24 of adrenocorticotropic hormone (SYSMEHFRWGKPVGKKRRPVKVYP; Corticotropin; UniProt P01189 138-161, looked up, fragment) | reduced | reduced | – | – |
